“Also recorded” adds a separate entry of the source. Non-standard residues stand in square brackets, D forms with d. Residues, ends and D or L forms follow the SMILES beside them. Nle = CCCC[C@H](N)C(=O)O

Holding throughout (format): cell-based
One test deals with p50/p65 complex. The experiment in a line: stable HEK293T p50/p65 YFP PCA cell line, nuclear translocation (N:C ratio). How it is done: Stable cell lines represent the gold standard for HTS since the assays can be reconstructed at any time from frozen stocks of cells. […] First, cells were co-transfected with YFP[2]-p65 encoding vectors, and stable cell lines were selected using 100 micrograms/ml of Hygromycin B (Invitrogen). Selected cell lines were then transfected with YFP[1]-p50. Stable cell lines expressing YFP[1]-p50/YFP[2]-p65 were isolated following double antibiotic selection with 50 μg/ml Hygromycin B and 500 μg/ml Zeocin. Cell clones stably expressing the fusion genes were identified by immunoblot analysis and fluorescence microscopy. A single cell line of each transfectant was selected for further characterization. Fluorescence of these lines is stable over at least 25 passages (data not shown). A stable, MEK/ERK cell line—constructed as described below—was used as a control for TNF effects. Fugene 6 (Roche) was used for all the transfections according to manufacturer's directions. Cells stably expressing YFP[1]-p50/YFP[2]-p65 were seeded at 20,000 cells/well in black-walled poly-lysine coated 96 well plate (Greiner). Twenty-four hours later, the cells were incubated with human TNF-alpha (Roche) for 30 min. Nuclei were stained with Hoechst 33342 (Molecular Probes) at 10 micrograms/ml for 10 min. Cells were rinsed with HBSS (Invitrogen) and kept in the same buffer. Fluorescence was visualized and images were acquired using a Discovery-1 automated fluorescence imager (Molecular Devices, Inc.) equipped with excitation and emission filters 470/35 and 535/60, respectively. […] For the high throughput screening campaign described below, cells were pretreated with compounds (10 micromolar) for 60 minutes and then stimulated with TNFalpha for 30 minutes in the presence of drugs. Cells were then fixed with 2% formaldehyde in HBSS and subsequently stained with Hoechst 33342. All liquid handling was done using a Biomek FX (Beckman) instrument and images were acquired as described above. Images were analyzed using Image J. Translocation is assessed by calculating the nuclear/cytoplasmic ratio of the mean fluorescence intensity for a population of cells (denoted as n) over several images for a given condition.
Genesis Plus is a collection of 960 diverse compounds, and includes compounds with known toxicity or fluorescent properties. Inclusion of compounds with such properties is important in HTS assay validation, as they might complicate analysis. The final concentration of compounds in wells was 10 micromolar, and all wells contained 0.5% DMSO concentration. […] Following fixation and staining of nuclei, fluorescence was analyzed on the automated fluorescent microscopy platform (Discovery 1; Universal Imaging/Molecular Devices Corp.). […]

A further test relates to NFkB (p65/p50) complex. The test is described as follows: transient high-content YFP PCA for NFkB (p65/p50) nuclear translocation in CHO cells. Particulars: 40 micrograms/ml ALLN 1 hour prior to and during TNF. On the procedure:
Fusion genes were subcloned into pCDNA3.1 expression vectors (Invitrogen) with a Zeocin selectable marker for YFP[1]-p50, and a hygromycin marker for YFP[2]-p65. A linker consisting of (GGGGS)2 (SEQ ID No.1) separated the genes of interest and the YFP fragments. CHO DUKXB11 cells were seeded into 96 well plates at a density of 8×10e3 cells/well and transfected 24 hours later with YFP[1] and YFP[2] fusion genes at a 1:1 molar ratio using Fugene (Boehringer Mannheim) according to manufacturer's directions. A total of 20 ng DNA per well was used for each sample. Thirty-six hours post-transfection, cells were serum starved by incubation in 0.25% FBS-supplemented aMEM for an additional 16–18 hours. For cytokine induction, certain cells were treated with 25 ng/ml mTNF (Boehringer Mannheim) for 30 min. To examine the effect of proteasome inhibition on NFkB nuclear translocation, the serum-starved cells were treated with 40 micrograms/ml ALLN (Calbiochem) for 1 hour prior to and during the mTNF alpha induction period. The cells were rinsed with PBS and the subcellular location of NFkB complexes was visualized and images acquired using a Nikon Eclipse TE2000 fluorescence microscope at excitation and emission wavelengths of 485 nm and 527 nm, respectively. Quantitative analysis of fluorescence intensities was performed using Metamorph software (Universal Imaging, Molecular Devices, Inc.)

A further test concerns IkBa/Ubiquitin complexes. The experiment in a line: IkBa/ubiquitin YFP PCA in HEK293T cells. To be noted: TNF induced HEK293T cells, ALLN versus vehicle. How it is done:
IkBa-YFP[1] and YFP[2]-ubiquitin were constructed as described above and transiently expressed in HEK293T cells. […] The present invention can be applied to the large-scale identification of proteins modified by ubiquitin and ubiquitin-like polypeptides; for example, using library screening as in Example 2 of the present invention where the ‘bait’ is ubiquitin or a ubiquitin-like molecule, or by using interaction mapping as in Example 4 where ubiquitin or a ubiquitin-like molecule is tested against individual cDNAs to identify ubiquitin-protein complexes. In addition, by constructing ubiquitin PCAs for specific protein targets, the assays that are the subject of the present invention can immediately be applied to high-throughput screening for novel therapeutic agents.

In the case of `CCCC[C@@H](C=O)NC(=O)[C@H](CC(C)C)NC(=O)[C@H](CC(C)C)NC(C)=O` [ALLN] (Ac-Leu-Leu-[Nle]-aldehyde), the “block of TNF-induced increases in the N:C ratio of p50/p65 complexes” value in the test on p50/p65 complex (ALLN treatment for 4 hr) was determined as 76%. Besides, the “effect on the TNF response in the stable p65/p50 PCA cell line (in words)” value in the test on p50/p65 complex (FIG. 12(B)) is given as “inhibition of the TNF response”. Also, in the test with NFkB (p65/p50) complex, the “effect on TNF-induced cytoplasmic-to-nuclear translocation of NFkB complexes” value is listed as “inhibition of the TNF response; also recorded: inhibited”. Also, the “mean fluorescence intensity of ubiquitin-IkBa complexes” value in the test on IkBa/Ubiquitin complexes is given as “increases the accumulation; also recorded: significantly increased”.

(Values after US7062219B2, “Protein fragment complementation assays for high-throughput and high-content screening” (Odyssey Thera Inc., priority 1997, dated 2006).)
